Earlier results in US11350648B2, “Compositions and related methods for agriculture” (priority 2017, dated 2022).

System: gram-negative and gram-positive bacteria as well as fungi

Substance: NCR335: cationic NCR peptide (RQMIILRLNTTFRPLNFKMLRFWGQN)
- antimicrobial activity: effective against gram-negative and gram-positive bacteria as well as fungi
